# In patent US12486239B2, “Benzotriazole compound, light absorber, and resin composition” (MITSUI CHEMICALS, INC., priority 2019, dated 2025):
# Experiments:
# Assay type in all cases: physicochemical
# [1] = Heat resistance: TG5% decomposition temperature; conditions: Table 6; nitrogen atmosphere, heating rate 10° C./min
# Experimental: In each Example and Comparative Example, the decomposition temperature was measured by the following method.
# Using a thermal analyzer Rigaku ThermoPlus Evo TG8120, the TG5% decomposition temperature (T-5% by mass) was measured under a nitrogen atmosphere at a heating rate of 10° C./min and a temperature range of from room temperature to 500° C.
# The higher the T-5% by mass, the higher the heat resistance.
# The decomposition temperature of the benzotriazole compound obtained in each Example and Comparative Example was measured by the following method.
# [2] = Solubility to various organic solvents; conditions: Table 6, room temperature; for Solubility: EA: ethyl acetate; for Solubility: MEK: methyl ethyl ketone; for Solubility: MMA: methyl methacrylate
# Experimental: As Comparative Example 1, the solubility of TINUVIN326 (manufactured by BASF Japan Ltd.) represented by the following Formula (TI) was measured by the following method.
# (§1) To 0.5 g of the benzotriazole compound, the various organic solvents shown in Table 1 were added such that the total mass was about 10 g, the mixture was irradiated with ultrasonic waves for about 30 minutes, and thereafter stirred at room temperature for 2 hours to prepare a dispersion of about 10% by mass.
# The dispersion was filtered through a membrane filter (0.2 μm), and the obtained residue was dried in a dryer at 60° C. for 1 hour, and then the mass of the residue was measured.
# The solubility of the benzotriazole compound to the solvent was expressed by the following formula. Solubility (% by mass)=(W0−W1)/W0
# W0 is the mass of the benzotriazole compound before the treatment, and W1 is the mass of the residue after drying (that is, the dissolution residue of the benzotriazole compound). In a case in which no residue remained on the filter, the solubility was determined as 5% by mass or more.
# The solubility of the benzotriazole compound obtained in each Example and Comparative Example was measured by the following method.
# as §1, with “Table 6” for “Table 1”
# [3] = Maximum absorption wavelength and gram absorption coefficient, toluene solution 0.002 g/L (second embodiment); conditions: optical path length 10 mm
# Experimental: The maximum absorption wavelength of the benzotriazole compound of the second embodiment is measured using a spectrophotometer (for example, Shimadzu Spectrophotometer UV-1600 manufactured by Shimadzu Corporation) at optical path length of 10 mm using a toluene solution having a concentration of 0.002 g/L.
# In Examples according to the second embodiment, the maximum absorption wavelength and the gram absorption coefficient of the benzotriazole compound were measured using a Shimadzu Spectrophotometer UV-1600 manufactured by Shimadzu Corporation at an optical path length of 10 mm using a toluene solution having a concentration of 0.002 g/L.
Decomposition temperature (Tg-5% by mass) [1] [°C],Solubility: PGMEA [2] [% by mass],Solubility: EA [2] [% by mass],Solubility: MEK [2],Solubility: MMA [2],Solubility: Toluene [2],gram absorption coefficient [3] [mL/g/cm],maximum absorption [3] [nm],Compound
331.7,≤1,≤1,≤1 % by mass,≤2 % by mass,3≤ % by mass,59200,368.5,Cc1cc(-n2nc3ccc(SCCOCCOCCSc4ccc5nn(-c6cc(C)cc(C(C)(C)C)c6O)nc5c4)cc3n2)c(O)c(C(C)(C)C)c1 [Compound D1]
335.1,≤1,≤1,≤0.5 % by mass,≤0.5 % by mass,1.5≤ % by mass,62000,364.5,Cc1cc(-n2nc3ccc(SCCOC(=O)c4cc(C(=O)OCCSc5ccc6nn(-c7cc(C)cc(C(C)(C)C)c7O)nc6c5)cc(C(=O)OCCSc5ccc6nn(-c7cc(C)cc(C(C)(C)C)c7O)nc6c5)c4)cc3n2)c(O)c(C(C)(C)C)c1 [Compound D3]
322.2,–,–,3≤ % by mass,3≤ % by mass,3≤ % by mass,63500,368.0,Cc1cc(-n2nc3ccc(SCCOCCSc4ccc5nn(-c6cc(C)cc(C(C)(C)C)c6O)nc5c4)cc3n2)c(O)c(C(C)(C)C)c1 [Compound D2]
